Values after ≈ are worked out from the molar mass of the structure shown. Residues, ends and D or L forms follow the SMILES beside them.
Assays:
[1] = tested on: all gram-positive bacterial strains; test: Mean MIC and therapeutic index, gram-positive strains; assay type: cell-based; conditions: four gram-positive strains
Experimental: (§1) The minimal inhibitory concentrations (MICs) of peptide derivatives versus planktonic bacteria were assessed using a modification of the broth microdilution assay previously described in the National Committee for Clinical Laboratory Standards (NCCLS). In brief, bacteria at mid-logarithmic growth were collected by centrifugation at 2,500 × g for 5 min. Subsequently, the pellet was resuspended and adjusted in Mueller-Hinton Broth (MHB; BD Bacto™, USA) to an OD620 of 0.05. Fifty µL of bacterial suspensions was transferred to 96-well microplates. Later, 50 µL of peptide derivatives at 0.98–250 µg/mL in 10 mM PBS, was added to wells and incubated for 24 h at 37°C with continuous shaking at 220 rpm. […] The experiments were done in three technical replicates and repeated independently.
(§2) The therapeutic index (TI) is widely used for evaluating a peptide’s efficacy and safety. It is the ratio between the minimum hemolytic concentration (MHC, the concentration causing 10% hemolysis) and the geometric mean (GM) value of the MIC [15]. […] While, both lysine-substituted peptides (BiF2_7K and BiF2_5K7K) had higher TIs against all tested biofilm-forming bacteria than did the two parent peptides, and the TI of BiF2_5K7K was higher than that of BiF2_7K.

[2] = tested on: human red blood cells (hRBCs); test: Hemolysis activity (hemoglobin release); assay type: cell-based; conditions: 1 h, 37°C; for MHC, minimum hemolytic concentration: peptide concentration causing 10% hemolysis of hRBCs, 2% hRBCs in 10 mM PBS, OD405
Experimental: The effect of peptides on human red blood cells (hRBCs) was assessed by observing the release of hemoglobin upon treated with peptide. Briefly, the hRBCs were obtained from healthy volunteers and subsequently diluted in 10 mM PBS to a concentration of 2% hRBCs. An equal volume of 2% hRBCs and peptide at concentration of 0.98–250 µg/mL in 10 mM PBS mixtures were incubated for 1 h at 37°C. Following incubation, the suspension was centrifuged, then supernatants were collected and transferred to 96-well microplates for measurement of absorbance at OD of 405 nm (OD405). This study was performed in accordance with the Thammasat University Ethics Committee (COA No. 066/2562). Written informed consent was obtained from all volunteers.

[3] = tested on: Staphylococcus epidermidis ATCC 35984; test: Broth microdilution MIC / MBC; assay type: cell-based; conditions: 24 h, 37°C; for MIC: broth microdilution, MHB, 0.98-250 µg/mL, visible inspection; for MBC: plating of non-turbid wells on TSA
Experimental: as §1
(§3) To determine minimal bactericidal concentrations (MBCs) of the peptides, 50 µL of supernatant from non-turbid wells was plated on TSA, and the number of colony-forming units (CFUs) was observed after 24 h of incubation at 37°C. MBC was defined as the minimum concentration of peptide at which no bacterial colony was observed on the plate.

[4] = tested on: Acinetobacter baumanii MT strain; test: Broth microdilution MIC / MBC; assay type: cell-based; conditions: 24 h, 37°C; for MIC: broth microdilution, MHB, 0.98-250 µg/mL, visible inspection; for MBC: plating of non-turbid wells on TSA
Experimental: as §1, §3

[5] = tested on: Escherichia coli ATCC 25922; test: Broth microdilution MIC / MBC; assay type: cell-based; conditions: 24 h, 37°C; for MIC: broth microdilution, MHB, 0.98-250 µg/mL, visible inspection; for MBC: plating of non-turbid wells on TSA
Experimental: as §1, §3

[6] = tested on: Salmonella Typhimurium ATCC 13311; test: Broth microdilution MIC / MBC; assay type: cell-based; conditions: 24 h, 37°C; for MIC: broth microdilution, MHB, 0.98-250 µg/mL, visible inspection; for MBC: plating of non-turbid wells on TSA
Experimental: as §1, §3

[7] = tested on: Bacillus cereus ATCC 11778; test: Broth microdilution MIC / MBC; assay type: cell-based; conditions: 24 h, 37°C; for MIC: broth microdilution, MHB, 0.98-250 µg/mL, visible inspection; for MBC: plating of non-turbid wells on TSA
Experimental: as §1, §3

[8] = tested on: Pseudomonas aeruginosa ATCC 27853; test: Broth microdilution MIC / MBC; assay type: cell-based; conditions: 24 h, 37°C; for MIC: broth microdilution, MHB, 0.98-250 µg/mL, visible inspection; for MBC: plating of non-turbid wells on TSA
Experimental: as §1, §3

[9] = tested on: Listeria monocytogenes 10403s; test: Broth microdilution MIC / MBC; assay type: cell-based; conditions: 24 h, 37°C; for MIC: broth microdilution, MHB, 0.98-250 µg/mL, visible inspection; for MBC: plating of non-turbid wells on TSA
Experimental: as §1, §3

[10] = tested on: Staphylococcus aureus ATCC 25923; test: Broth microdilution MIC / MBC; assay type: cell-based; conditions: 24 h, 37°C; for MIC: broth microdilution, MHB, 0.98-250 µg/mL, visible inspection; for MBC: plating of non-turbid wells on TSA
Experimental: as §1, §3

[11] = tested on: all gram-negative bacterial strains; test: Mean MIC and therapeutic index, gram-negative strains; assay type: cell-based; conditions: four gram-negative strains
Experimental: as §1, §2

[12] = tested on: S. epidermidis (ATCC 35984) biofilm; test: Biofilm-formation inhibitory activity, crystal violet staining; assay type: cell-based, Staphylococcus epidermidis; conditions: CV staining, TSB, 10^6 CFU/mL, 24 h, 37°C, 0.98-250 µg/mL; for MBIC50: minimum concentration inhibiting biofilm formation more than 50%; for MBIC90: minimum concentration inhibiting biofilm formation more than 90%
Experimental: The biofilm inhibitory activity of peptide derivatives was assessed by modified crystal violet (CV) staining. Briefly, the pellet of S. epidermidis (ATCC 35984) was collected through centrifugation of bacterial suspensions grown overnight at 2,500 × g for 5 min. Subsequently, the pellet was resuspended and diluted with TSB to a final concentration of 10^6 CFU/mL. Then, 50 µL of these diluted suspensions was transferred to 96-well microplates containing same volume of peptide derivatives in 10 mM phosphate buffer saline (PBS; Caisson Labs, USA), with concentrations ranging from 0.98 to 250 µg/mL. Vancomycin was used as positive control while TSB medium without bacteria was used as negative control. After 24 h of incubation and reaching static growth at 37°C, culture media as well as planktonic cells were removed, then the biofilm in each well was washed thrice with 0.85% NaCl. For CV staining, biofilms were fixed with 95% ethanol and stained with a 0.1% (v/v) CV solution for 15 min. After removal of excess dye, each well was washed thrice with 0.85% NaCl and resuspended in 95% ethanol to dissolve bound dye. Absorbance was determined at 570 nm using a Multiskan SkyHigh microplate reader (Thermo Scientific™, Singapore). All experiments were done in six technical replicates and repeated independently three times. Minimum biofilm inhibitory concentrations at 50% and 90% (MBIC50 and MBIC90) refers to concentrations of the peptide at which the inhibition of biofilm was at least 50% and 90%, respectively.

| SMILES | GM +, geometric mean of MIC values from all gram-positive bacterial strains [1] | MHC, minimum hemolytic concentration [2] | MIC [3] | MBC [3] | MIC [4] | MBC [4] | MIC [5] | MBC [5] | MIC [6] | MBC [6] | MIC [7] | MBC [7] | MIC [8] | MBC [8] | MIC [9] | MBC [9] | MIC [10] | MBC [10] | GM-, geometric mean of MIC values from all gram-negative bacterial strains [11] | MBIC50 [12] | also measured |
| --- | --- | --- | --- | --- | --- | --- | --- | --- | --- | --- | --- | --- | --- | --- | --- | --- | --- | --- | --- | --- | --- |
| CC[C@H](C)[C@H](NC(=O)[C@H](CC(C)C)NC(=O)[C@H](CCCCN)NC(=O)[C@@H](NC(=O)[C@H](CC(C)C)NC(=O)[C@@H](N)Cc1ccccc1)C(C)C)C(=O)N[C@@H](CC(C)C)C(=O)N[C@@H](CCCCN)C(=O)N[C@H](C(=O)N[C@@H](CC(C)C)C(=O)N[C@@H](CCCNC(=N)N)C(=O)N[C@@H](CCCNC(=N)N)C(N)=O)[C@@H](C)CC [BiF2] (H-FLVKLILKILRR-NH2; N-terminus assumed) | 31.25 µg/mL | 1.95 µg/mL | 31.25 µg/mL (≈ 20.7 µM) | 62.5 µg/mL (≈ 41.4 µM) | 62.5 µg/mL (≈ 41.4 µM) | 62.5 µg/mL (≈ 41.4 µM) | 31.2 µg/mL (≈ 20.7 µM) | 31.2 µg/mL (≈ 20.7 µM) | 62.5 µg/mL (≈ 41.4 µM) | 62.5 µg/mL (≈ 41.4 µM) | 15.6 µg/mL (≈ 10.3 µM) | 15.6 µg/mL (≈ 10.3 µM) | 15.63 µg/mL (≈ 10.3 µM) | 31.25 µg/mL (≈ 20.7 µM) | 15.63 µg/mL (≈ 10.3 µM) | 31.25 µg/mL (≈ 20.7 µM) | 62.5 µg/mL (≈ 41.4 µM) | 62.5 µg/mL (≈ 41.4 µM) | 42.97 µg/mL | 125 µg/mL | MBIC90 [12]: 250 µg/mL |
| CC[C@H](C)[C@H](NC(=O)[C@H](CC(C)C)NC(=O)[C@H](CCCCN)NC(=O)[C@@H](NC(=O)[C@H](CC(C)C)NC(=O)[C@@H](N)Cc1ccccc1)C(C)C)C(=O)N[C@@H](CCCCN)C(=O)N[C@@H](CCCCN)C(=O)N[C@H](C(=O)N[C@@H](CC(C)C)C(=O)N[C@@H](CCCNC(=N)N)C(=O)N[C@@H](CCCNC(=N)N)C(N)=O)[C@@H](C)CC [BiF2_7K] (H-FLVKLIKKILRR-NH2; N-terminus assumed) | 9.77 µg/mL | 15.63 µg/mL | 7.81 µg/mL (≈ 5.12 µM) | 7.81 µg/mL (≈ 5.12 µM) | 7.81 µg/mL (≈ 5.12 µM) | 7.81 µg/mL (≈ 5.12 µM) | 31.2 µg/mL (≈ 20.5 µM) | 31.2 µg/mL (≈ 20.5 µM) | 7.81 µg/mL (≈ 5.12 µM) | 15.63 µg/mL (≈ 10.2 µM) | 7.81 µg/mL (≈ 5.12 µM) | 7.81 µg/mL (≈ 5.12 µM) | 15.6 µg/mL (≈ 10.2 µM) | 15.6 µg/mL (≈ 10.2 µM) | 7.81 µg/mL (≈ 5.12 µM) | 7.81 µg/mL (≈ 5.12 µM) | 15.6 µg/mL (≈ 10.2 µM) | 15.6 µg/mL (≈ 10.2 µM) | 15.63 µg/mL | 3.91 µg/mL | hemolytic activity ([2]; at 250 µg/mL (maximum concentration tested)): 60%; MBIC90 [12]: 7.81 µg/mL |

— article PMC11100219, “Dual-function antimicrobial-antibiofilm peptide hybrid to tackle biofilm-forming Staphylococcus epidermidis” (Annals of Clinical Microbiology and Antimicrobials, 2024)
